Where “and” joins values, the source holds several entries; their conditions need not be identical. Equal entries are not always repeated. Toxic doses and inconclusive results are not listed. Rule as the data show it: active = T/C of 150% or more; inactive = T/C below 125%. Square brackets hold non-standard residues; d marks the D form. Peptide text beside a SMILES is read from it. Sar = CNCC(=O)O
System: L1210 leukemia ip in BDF1 mice, survival T/C
Test: NCI In Vivo Anticancer Drug Screen. Data for tumor model L1210 Leukemia (intraperitoneal) in B6D2F1 (BDF1) mice
Settings: endpoint: mean survival time, higher = longer survival
In short: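 Read-out is survival time, reported as the treated-group measurement over the vehicle-control measurement.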

[1] = dose: 100.0 mg/kg/injection, schedule: Q01DX001 (ip), vehicle: saline
[2] = dose: 100.0 mg/kg/injection, schedule: Q04DX003 (ip), vehicle: Klucel (hydroxypropylcellulose) (HPC)
[3] = dose: 200.0 mg/kg/injection, schedule: Q01DX001 (ip), vehicle: saline
[4] = dose: 200.0 mg/kg/injection, schedule: Q04DX003 (ip), vehicle: Klucel (hydroxypropylcellulose) (HPC)
[5] = dose: 400.0 mg/kg/injection, schedule: Q01DX001 (ip), vehicle: saline
[6] = dose: 400.0 mg/kg/injection, schedule: Q04DX003 (ip), vehicle: Klucel (hydroxypropylcellulose) (HPC)
[7] = dose: 100.0 mg/kg/injection, schedule: Q01DX009 (ip), vehicle: saline with Tween-80
[8] = dose: 100.0 mg/kg/injection, schedule: Q04DX002 (ip), vehicle: saline with Tween-80
[9] = dose: 200.0 mg/kg/injection, schedule: Q01DX009 (ip), vehicle: saline with Tween-80
[10] = dose: 100.0 mg/kg/injection, schedule: Q01DX009 (ip), vehicle: Klucel (hydroxypropylcellulose) (HPC)
[11] = dose: 200.0 mg/kg/injection, schedule: Q01DX009 (ip), vehicle: Klucel (hydroxypropylcellulose) (HPC)
[12] = dose: 400.0 mg/kg/injection, schedule: Q01DX009 (ip), vehicle: Klucel (hydroxypropylcellulose) (HPC)
[13] = dose: 100.0 mg/kg/injection, schedule: Q01DX001 (ip), vehicle: Klucel (hydroxypropylcellulose) (HPC)
[14] = dose: 200.0 mg/kg/injection, schedule: Q01DX001 (ip), vehicle: Klucel (hydroxypropylcellulose) (HPC)
[15] = dose: 400.0 mg/kg/injection, schedule: Q01DX001 (ip), vehicle: Klucel (hydroxypropylcellulose) (HPC)
[16] = dose: 100.0 mg/kg/injection, schedule: Q04DX002 (ip), vehicle: saline
[17] = dose: 100.0 mg/kg/injection, schedule: Q01DX001 (ip), vehicle: carboxymethylcellulose (CMC)
[18] = dose: 200.0 mg/kg/injection, schedule: Q01DX001 (ip), vehicle: carboxymethylcellulose (CMC)
[19] = dose: 400.0 mg/kg/injection, schedule: Q01DX001 (ip), vehicle: carboxymethylcellulose (CMC)

Measured: T/C

OC1CCC(O)C2CCCCC12 (stereo not drawn)
inactive: [1] 101 % of control | [2] 112 % of control | [3] 95 % of control | [4] 91 % of control | [5] 95 % of control | [6] 104 % of control

CCCCCCCCCCCC(=O)NC(=S)Nc1cccc(Cl)c1
inactive: dose: 100.0 mg/kg/injection, schedule: Q01DX001 (ip), vehicle: saline with Tween-80 93 % of control | [7] 107 % of control and 89 % of control | [8] 122 % of control and 91 % of control | dose: 200.0 mg/kg/injection, schedule: Q01DX001 (ip), vehicle: saline with Tween-80 93 % of control | [9] 96 % of control and 86 % of control | dose: 200.0 mg/kg/injection, schedule: Q04DX002 (ip), vehicle: saline with Tween-80 97 % of control and 119 % of control | dose: 400.0 mg/kg/injection, schedule: Q01DX001 (ip), vehicle: saline with Tween-80 90 % of control | dose: 400.0 mg/kg/injection, schedule: Q04DX002 (ip), vehicle: saline with Tween-80 105 % of control and 92 % of control

CCCCCCCCCCCCSCCNC(=O)CCl
inactive: [10] 87 % of control | [2] 95 % of control | [11] 92 % of control | [4] 92 % of control | [12] 88 % of control | [6] 92 % of control

CCCCc1ccc(Nc2cc(=O)[nH]c(=O)[nH]2)cc1
inactive: dose: 25.0 mg/kg/injection, schedule: Q01DX001 (ip), vehicle: gum acacia 87 % of control | dose: 50.0 mg/kg/injection, schedule: Q01DX001 (ip), vehicle: gum acacia 87 % of control | dose: 200.0 mg/kg/injection, schedule: Q01DX001 (ip), vehicle: gum acacia 88 % of control | dose: 400.0 mg/kg/injection, schedule: Q01DX001 (ip), vehicle: gum acacia 88 % of control

COC(=O)NS(=O)(=O)c1ccn(C)c1
inactive: [13] 97 % of control | [2] 100 % of control | [14] 98 % of control | [4] 100 % of control | [15] 104 % of control | [6] 100 % of control

CCOC(=O)C1(C(C)=O)CC=CC1
inactive: [1] 100 % of control | [3] 104 % of control | [5] 100 % of control

Oc1ccc(Br)cc1/C=N/N1CCN(/N=C/c2cc(Br)ccc2O)CC1
inactive: [1] 96 % of control | [3] 92 % of control | [5] 90 % of control

O=c1[nH]cc(CCOCc2ccccc2)c(=O)[nH]1
inactive: [1] 103 % of control | [3] 94 % of control | [5] 103 % of control

CN(CC(=O)O)C(=O)CN (H-Gly-[Sar]-OH)
inactive: dose: 25.0 mg/kg/injection, schedule: Q04DX002 (ip), vehicle: saline 113 % of control | dose: 50.0 mg/kg/injection, schedule: Q04DX002 (ip), vehicle: saline 97 % of control | [16] 103 % of control

CC(=O)c1ccc(OC(=O)Nc2cc([N+](=O)[O-])ccc2F)cc1
inactive: [2] 98 % of control | [4] 101 % of control | [6] 95 % of control

CC(C)(C)c1ccc(O)c(C(C)(C)C)c1
inactive: dose: 50.0 mg/kg/injection, schedule: Q01DX009 (ip), vehicle: saline with Tween-80 100 % of control | [7] 96 % of control | dose: 100.0 mg/kg/injection, schedule: Q04DX003 (ip), vehicle: saline with Tween-80 91 % of control | [9] 97 % of control | dose: 200.0 mg/kg/injection, schedule: Q04DX003 (ip), vehicle: saline with Tween-80 95 % of control

ClC(Cl)c1nc2ccccc2[nH]1
inactive: dose: 25.0 mg/kg/injection, schedule: Q01DX001 (ip), vehicle: Klucel (hydroxypropylcellulose) (HPC) 94 % of control | dose: 50.0 mg/kg/injection, schedule: Q04DX003 (ip), vehicle: saline 97 % of control

Cc1cc(=O)[nH]c2c1ccc1[nH]c(=O)cc(C)c12
inactive: [13] 91 % of control | [2] 95 % of control | [14] 94 % of control | [15] 91 % of control | [6] 86 % of control

COc1ccc2c(c1O)C13CCN(C)C(C2)C12C=CC(=O)C3c1c(O)ccc(O)c12 (stereo not drawn)
inactive: [17] 92 % of control | [18] 97 % of control | [19] 95 % of control

O=C(NC1(C(=O)O)CCCC1)C(F)(F)F
inactive: dose: 100.0 mg/kg/injection, schedule: Q04DX003 (ip), vehicle: saline 98 % of control | dose: 200.0 mg/kg/injection, schedule: Q04DX003 (ip), vehicle: saline 118 % of control | dose: 400.0 mg/kg/injection, schedule: Q04DX003 (ip), vehicle: saline 111 % of control

COc1ccccc1OC1CCCCC1OS(C)(=O)=O (stereo not drawn)
inactive: [13] 95 % of control | [10] 95 % of control | [2] 102 % of control | [14] 105 % of control | [11] 101 % of control | [4] 101 % of control | [15] 95 % of control | [12] 95 % of control | [6] 95 % of control

CSc1nc(N)nc2c1ncn2C1CC(O)C(CO)O1 (stereo not drawn)
inactive: dose: 100.0 mg/kg/injection, schedule: Q01DX005 (ip), vehicle: saline 105 % of control and 112 % of control and 96 % of control | dose: 100.0 mg/kg/injection, schedule: Q01DX009 (ip), vehicle: saline 121 % of control | dose: 200.0 mg/kg/injection, schedule: Q01DX005 (ip), vehicle: saline 112 % of control and 121 % of control and 91 % of control | dose: 200.0 mg/kg/injection, schedule: Q01DX009 (ip), vehicle: saline 115 % of control | dose: 400.0 mg/kg/injection, schedule: Q01DX009 (ip), vehicle: saline 116 % of control

CCOC(=O)C(C)(C)CN(CC(C)(C)C(=O)OCC)C(C)(C)C
inactive: dose: 100.0 mg/kg/injection, schedule: Q01DX001 (ip), vehicle: saline sonified 87 % of control | dose: 200.0 mg/kg/injection, schedule: Q01DX001 (ip), vehicle: saline sonified 93 % of control | dose: 400.0 mg/kg/injection, schedule: Q01DX001 (ip), vehicle: saline sonified 91 % of control

O=C1C[C@@H](c2ccc(O)cc2)[C@@]2(O1)C(=O)O[C@H]([C@@H](O)CO)[C@@H]2O
inactive: dose: 75.0 mg/kg/injection, schedule: Q01DX001 (ip), vehicle: saline 98 % of control | dose: 75.0 mg/kg/injection, schedule: Q01DX009 (ip), vehicle: saline 96 % of control | dose: 75.0 mg/kg/injection, schedule: Q04DX003 (ip), vehicle: saline 95 % of control | dose: 150.0 mg/kg/injection, schedule: Q01DX001 (ip), vehicle: saline 96 % of control | dose: 150.0 mg/kg/injection, schedule: Q01DX009 (ip), vehicle: saline 93 % of control | dose: 150.0 mg/kg/injection, schedule: Q04DX003 (ip), vehicle: saline 98 % of control | dose: 300.0 mg/kg/injection, schedule: Q01DX001 (ip), vehicle: saline 97 % of control | dose: 300.0 mg/kg/injection, schedule: Q01DX009 (ip), vehicle: saline 100 % of control | dose: 300.0 mg/kg/injection, schedule: Q04DX003 (ip), vehicle: saline 94 % of control

O=C(C1CC=CCC1)N1CCCCCC1 (stereo not drawn)
inactive: [16] 101 % of control | dose: 200.0 mg/kg/injection, schedule: Q04DX002 (ip), vehicle: saline 111 % of control | dose: 400.0 mg/kg/injection, schedule: Q04DX002 (ip), vehicle: saline 99 % of control

Cc1[nH]c(=O)ncc1CCOCc1ccccc1
inactive: [17] 104 % of control | [18] 109 % of control | [19] 104 % of control

CCCCNC(=O)COc1c(C)cccc1Cl
inactive: dose: 25.0 mg/kg/injection, schedule: Q04DX002 (ip), vehicle: saline with Tween-80 101 % of control | dose: 50.0 mg/kg/injection, schedule: Q04DX002 (ip), vehicle: saline with Tween-80 96 % of control | [8] 96 % of control

CC(C)(C)c1cccc(C(C)(C)C)c1OC(=O)NS(=O)(=O)c1ccccc1
inactive: dose: 12.5 mg/kg/injection, schedule: Q01DX009 (ip), vehicle: acetone 98 % of control | dose: 25.0 mg/kg/injection, schedule: Q01DX009 (ip), vehicle: acetone 94 % of control | dose: 50.0 mg/kg/injection, schedule: Q01DX009 (ip), vehicle: acetone 91 % of control | dose: 75.0 mg/kg/injection, schedule: Q01DX009 (ip), vehicle: Klucel (hydroxypropylcellulose) (HPC) 96 % of control | dose: 115.0 mg/kg/injection, schedule: Q01DX009 (ip), vehicle: Klucel (hydroxypropylcellulose) (HPC) 98 % of control

From PubChem BioAssay AID248 (DTP/NCI, 2004)
